Assay results: PMC8765310, “Metabolism, Excretion, and Mass Balance of [^14C]-Rezafungin in Animals and Humans” (Antimicrobial Agents and Chemotherapy, 2022)
*1 amine or outer side, *2 acyl side, *3 side chain or, on linkers, in order; H or OH if unused. Where a SMILES comes first, the peptide text is derived from it. Bridges are numbered along the chain shown (N, C = ends). [ ]: non-standard residue; d: D form. The star is where a group is joined. Orn(4R-OH,5R-OCH2CH2NMe3+) = C[N+](C)(C)CCO[C@@H](N[*:3])[C@H](O)C[C@H](N[*:1])C(=O)[*:2]; pTerphenylCO(4''-OnC5H11) = CCCCCOc1ccc(-c2ccc(-c3ccc(C(=O)*)cc3)cc2)cc1; hTyr(3S-OH,4S-OH) = N[C@H](C(=O)O)[C@H](O)[C@@H](O)c1ccc(O)cc1; Pro(3S-OH,4S-Me) = C[C@H]1CN[C@H](C(=O)O)[C@H]1O; Hyp = O=C(O)[C@@H]1C[C@@H](O)CN1

Assays:
[1] = Human excretion/mass balance of [14C]-rezafungin; format: in vivo
Experimental: (§1) (i) Study design. This was an open-label, phase I, single-dose mass balance study. The study was conducted at Labcorp (formerly, Covance, Inc.; Madison, WI) in accordance with good clinical practice, including ICH guidelines and applicable regulatory requirements, and in general conformity with the Declaration of Helsinki. No animal work was conducted by Labcorp. All pertinent study documents were reviewed by the Institutional Review Board (IRB) prior to study initiation. Following IRB approval and collection of written informed consent, all the subjects underwent an initial screening assessment within 28 days of the first dose. Safety was assessed by vital signs, physical examinations, AE assessments, laboratory tests (chemistry, hematology, and urinalysis), and a 12-lead electrocardiogram.
(§2) Subjects were initially confined in the clinical research unit (CRU) for 17 days postdose and returned for two follow-up visits (days 29 and 60). Recovery of radioactivity was estimated by linear interpolation during the period of time subjects were away from the CRU. Blood samples, urine, and feces were collected at specified times over 60 days.
(§3) (ii) Sample analysis. Whole blood, plasma, urine, and fecal homogenate samples were mixed with scintillation fluid and analyzed by liquid scintillation counting. For non-radiolabeled rezafungin concentration determination, a bioanalytical method was validated for measuring rezafungin in human plasma that is similar to one previously reported for animal plasma ([16]). Samples were analyzed using a 100 μl aliquot volume and a protein-precipitation extraction procedure followed by liquid chromatography/tandem mass spectrometry (LC-MS/MS) analysis. Chromatography was carried out on a Waters Atlantis HPLC column (dC18, 2.1 × 50 mm, 5 μm) operating under reverse-phase gradient conditions (0.1% formic acid in water/0.1% formic acid in acetonitrile/tetrahydrofuran ramped from 55%/45%/0% to 5%/0%/95%). Rezafungin calibration range was 10.0 ng/ml to 10,000 ng/ml using isotopically-labeled d9-rezafungin as an internal standard. An AB-Sciex API 4000 mass spectrometer was operated in the multiple reaction monitoring mode (parent-to-product ion transition) under optimized conditions for detection of rezafungin (m/z 604.5 to 343.3 Da) and d9-rezafungin (m/z 609.5 to 343.3 Da) positive ions formed by electrospray ionization. Excellent intra- and inter-assay accuracy and precision, as measured by quality control (QC) samples, was obtained during validation. Across the range of QC samples tested (lower limit of quantitation, LLOQ, through the High QC range), the intra-assay accuracy (% bias from nominal) ranged from −1.4% to 7.0% with the intra-assay precision (% coefficient of variation) ranging from 1.6% to 7.4%. Inter-assay accuracy ranged from 0.3% to 4.3% with the inter-assay precision ranging from 2.7% to 5%.

[2] = Human clinical pharmacokinetics (plasma rezafungin, plasma and whole blood total radioactivity); format: in vivo
Experimental: as §1, §2, §3
(iv) Metabolite profiling. Plasma samples were pooled across subjects through 672 h postdose to produce inter-subject time point pools. Urine and fecal homogenate samples were pooled by subject across various time points up through 408 and 672 h postdose, respectively. Selected samples of plasma, urine, and feces were profiled for rezafungin and metabolites by HPLC with radiochemical and high-resolution mass spectrometry detection; metabolites were identified by HPLC with known standards and/or by HPLC-MS/MS structure elucidation. Pharmacokinetics were calculated by non-compartmental analysis using Phoenix WinNonlin software (version 6.3/8.1; Pharsight, Mountain View, CA).

[3] = Rat blood and plasma radioactivity pharmacokinetics; format: in vivo, Sprague-Dawley rats; conditions: IV [14C]-rezafungin 15 mg/kg, mean plasma concentrations
Experimental: (i) Rat study design. The study used 12 male Sprague-Dawley rats, each administered a bolus IV injection into the tail vein over approximately 3–4 min of 15 mg/kg of rezafungin (with a target radioactivity of 200 μCi/kg of [^14C]-rezafungin). Three of the rats were bile duct cannulated. Whole blood/plasma, urine, feces/bile, and cage washings were collected at periodic intervals from noncannulated rats until euthanization at 336 h postdose and from bile duct cannulated rats until euthanization at 120 h postdose as that was the duration that the patency of bile duct cannulae could be maintained. Carcasses were collected at the time of euthanization. All samples were analyzed for drug-derived radioactivity by liquid scintillation counting.
(iii) Sample analysis. Whole blood and fecal homogenates were combusted prior to analysis by liquid scintillation counting (LSC). Blood, plasma, bile, urine, cage rinse/wash, and fecal homogenate samples were mixed with scintillation fluid and analyzed for radioactivity by LSC. Rat carcasses were dissolved in potassium hydroxide, and the resulting digests were mixed with scintillation fluid and analyzed for radioactivity by LSC.

[4] = of the estimated total through day 60
[5] = single 400-mg IV infusion, LSC, mean (SD)
[6] = single 400-mg IV infusion, mean (SD)
[7] = single 400-mg IV infusion, median (min, max)

Structure (SMILES): CCCCCOc1ccc(-c2ccc(-c3ccc(C(=O)N[C@H]4C[C@@H](O)[C@@H](OCC[N+](C)(C)C)NC(=O)[C@@H]5[C@@H](O)[C@@H](C)CN5C(=O)[C@H]([C@@H](C)O)NC(=O)[C@H]([C@H](O)[C@@H](O)c5ccc(O)cc5)NC(=O)[C@@H]5C[C@@H](O)CN5C(=O)[C@H]([C@@H](C)O)NC4=O)cc3)cc2)cc1 [rezafungin] ({pTerphenylCO(4''-OnC5H11)}-[Orn(4R-OH,5R-OCH2CH2NMe3+)]T[Hyp][hTyr(3S-OH,4S-OH)]T[Pro(3S-OH,4S-Me)]; lactam 1-C)
- Share of the total recovered radioactivity found in feces [1, 4]: Approximately 73%
- Share of the total recovered radioactivity found in urine [1, 4]: 27%
- Cumulative recovery of radioactivity from excreta ([1]; single 400-mg IV infusion, through the first 17 days (in-clinic), LSC, mean): 52%
- Estimated mean overall recovery of the dose ([1]; through day 60, linear interpolation with day 29 and day 60 visits): 88.3%
- Cumulative recovery of radioactivity in feces ([1]; through the first 17 days): 38%
- Cumulative recovery of radioactivity in urine ([1]; through the first 17 days): 14%
- Cmax ([2]; male, plasma, single 400-mg IV infusion, LC-MS/MS, mean (SD), SD): 18900 ng/mL
- AUC(0-inf) ([2]; male, plasma, single 400-mg IV infusion, LC-MS/MS, mean (SD), SD, read-out: AUC0-∞, plasma rezafungin): 2110 µg·h/mL
- Vd ([2]; male, plasma, single 400-mg IV infusion, apparent volume of distribution, terminal phase, mean (SD), SD, read-out: VZ, plasma rezafungin): 88.6 L
- Tmax ([2]; male, plasma, single 400-mg IV infusion, median (min, max)): 1 h
- half-life ([2]; male, plasma, single 400-mg IV infusion, terminal elimination half-life, mean (SD), SD, read-out: t½, plasma rezafungin (converted)): 341 h
- AUC(0-t) ([2]; plasma, 9 healthy male subjects, single 400-mg IV infusion (200 μCi), LC-MS/MS, arithmetic mean (SD), SD, read-out: AUC0-t, plasma rezafungin): 2050 µg·h/mL
- AUC0-t, plasma total radioactivity ([2]; single 400-mg IV infusion (200 μCi), LSC, mean (SD)): 2600 (163) μg equivalent×hour/ml
- AUC0-t, whole blood total radioactivity [2, 5]: 2390 (175) μg equivalent×hour/ml
- AUC0-∞, plasma total radioactivity [2, 5]: 2750 (182) μg equivalent×hour/ml
- AUC0-∞, whole blood total radioactivity [2, 5]: 2450 (200) μg equivalent×hour/ml
- Cmax, plasma total radioactivity [2, 5]: 18.2 (2.28) μg/ml
- Cmax, whole blood total radioactivity [2, 5]: 18.5 (2.24) μg/ml
- t½, plasma total radioactivity [2, 6]: 387 (44.8) hours
- t½, whole blood total radioactivity [2, 6]: 408 (39.7) hours
- tmax, plasma total radioactivity [2, 7]: 1.00 (1.00, 1.00) hours
- tmax, whole blood total radioactivity [2, 7]: 1.00 (1.00, 1.00) hours
- t1/2 of plasma total radioactivity [3]: 54 h
